According to PMC10304470, “Characterization of the Antimicrobial Activities of Trichoplusia ni Cecropin A as a High-Potency Therapeutic against Colistin-Resistant Escherichia coli” (Pharmaceutics, 2023):
Peptide text beside a SMILES is read from it.

Legend:
E. coli (KCTC 1682) = type: cell-based, Escherichia coli; settings: KCTC 1682, 16 h
Description: (§1) E. coli (KCTC 1682) was obtained from the Korean Collection for Type Cultures (KCTC, Jeongeup, Republic of Korea), and Acinetobacter baumannii (KCCM 40203) and Pseudomonas aeruginosa (KCCM 11328) from the Korea Culture Center of Microorganisms (KCCM, Seoul, Republic of Korea). Klebsiella pneumoniae (NCCP 16054), colistin-resistant E. coli NMA 1557 (ColREC 1557), NMS 12 (ColREC 12), and colistin-resistant A. baumannii NMS 1915 (ColRAB 1915), as well as colistin-resistant K. pneumoniae NMS 139 (ColRKP 139), were obtained from the National Institute of Health Multidrug Resistant Bacteria Specialized Pathogen Resources Bank (Osong, Republic of Korea).
(§2) The antibacterial abilities of the peptides (T. ni cecropin, cecropin A, polymyxin B, colistin, and melittin) were determined using the broth dilution method as previously reported. The peptides dissolved at 10 mg/mL in deionized water were serially diluted from 64 μM to 0.5 μM in 96-well plates using Mueller–Hinton (MH) broth, and bacteria cultured to exponential growth were added at 2 × 10^5 cells/mL. The group of bacteria that grew untreated in the broth was set as the positive control, and the uninoculated broth as the negative control. Dissolved peptides are colorless and equal to the OD value of the medium only. After 16 h incubation at 37 °C, the absorbance at 600 nm was measured using a SpectraMAX microplate reader (Molecular Devices, San Jose, CA, USA).

[1] = tested on: colistin-resistant E. coli NMA 1557 (ColREC 1557); type: cell-based, Escherichia coli; settings: MH broth, 2 × 10^5 cells/mL, 16 h, 37 °C, OD600, >95% killing
Description: as §1, §2

[2] = tested on: colistin-resistant E. coli NMS 12 (ColREC 12); type: cell-based, Escherichia coli; settings: MH broth, 2 × 10^5 cells/mL, 16 h, 37 °C, OD600, >95% killing
Description: as §1, §2

[3] = tested on: colistin-resistant A. baumannii NMS 1915 (ColRAB 1915); settings: MH broth, 2 × 10^5 cells/mL, 16 h, 37 °C, OD600, >95% killing
Description: as §1
as §2, with “The” for “The antibacterial abilities of the peptides (T. ni cecropin, cecropin A, polymyxin B, colistin, and melittin) were determined using the broth dilution method as previously reported. The”

[4] = tested on: sheep red blood cells (sRBCs); experiment: Hemolysis; type: cell-based; settings: 100 μM peptide, 1 h, 37 °C
Description: Sheep red blood cells (sRBCs; KisanBio, Seoul, Republic of Korea) were added to three volumes of phosphate-buffered saline (PBS; 35 mM phosphate buffer containing 150 mM NaCl, pH 7.4) and centrifuged five times at 4 °C, 1000× g for 5 min, followed by a final suspension in PBS at 4% (w/v). Peptides serially diluted from 100 μM to 3.1 μM in PBS at 100 μL in a 96-well plate were prepared, and an equal volume of blood solution was added. After incubation at 37 °C for 1 h, the plates were centrifuged for 5 min at 4 °C, 1000× g. The absorbance of the supernatant was measured at 405 nm. The 100% hemolysis control was 0.1% Triton-X 100 added to the blood solution; the negative control was blood solution added to PBS.

## CC[C@H](C)CCCCC(=O)N[C@@H](CCN)C(=O)N[C@H](C(=O)N[C@@H](CCN)C(=O)N[C@H]1CCNC(=O)[C@H]([C@@H](C)O)NC(=O)[C@H](CCN)NC(=O)[C@H](CCN)NC(=O)[C@H](CC(C)C)NC(=O)[C@@H](CC(C)C)NC(=O)[C@H](CCN)NC1=O)[C@@H](C)O [colistin] (HELM PEPTIDE1{[CC[C@H](C)CCCCC(=O)[*:2]].[Dab].T.[Dab].[Dab].[Dab].[dL].L.[Dab].[Dab].T}$PEPTIDE1,PEPTIDE1,5:R3-11:R2$$$V2.0; N-terminus assumed; bridges inferred)
E. coli (KCTC 1682)
  Minimal Inhibitory Concentration: 0.25 µM
[1]
  Minimal Inhibitory Concentration: 8 µM
[2]
  Minimal Inhibitory Concentration: 4 µM
[3]
  Minimal Inhibitory Concentration: >64 µM
[4]
  hemolytic activity: no hemolytic activity
